Source: PubChem BioAssay AID179 (DTP/NCI, 2004)
Several values for one entry are separate records, joined by “and”; a condition that tells them apart may be missing. Equal entries are not always repeated. Activity calls are given as the source filed them.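 Rule for the calls: active = compounds giving half or more protection of infected cells from virus-caused growth loss, again on retest; inactive = the rest.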

System: CEM cells HIV-1 protection, formazan growth assay
Test: NCI AIDS Antiviral Assay
Details: for IC50: measured here: growth of uninfected CEM cells
How it was run: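 Human CEM cells, uninfected and HIV-1-infected, exposed to five drug concentrations; growth measured by soluble formazan assay and scored as percent protection from infection, with protecting compounds retested.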

Compound | EC50 | IC50 | outcome
CCN(CC)c1ccc2cc(-c3nc4ccccc4s3)c(=O)oc2c1 | > 20.4 µM | > 20.4 µM | 
O=C1CCC2(c3ccc(F)cc3)Nc3cc(Cl)ccc3N12 (stereo not drawn) |  |  | inactive
COc1ccc(/C=N/Nc2nc3ccccc3c(=O)n2-c2ccccc2)cc1 | > 200 µM | > 200 µM | 
O=C(O)CCCCCCCCCCCc1ccccc1 | > 200 µM | 18.6 µM | 
CC(C)(C)C(=O)/C=C/c1ccc([N+](=O)[O-])cc1 |  | 10.2 µM | inactive
CC(=O)OCC1OC(n2c(=O)n(-c3ccccc3)c(=O)c3ccccc32)C(OC(C)=O)C(OC(C)=O)C1OC(C)=O (stereo not drawn) | > 24 µM | > 24 µM | 
COC(=O)c1cc(C(=CCCc2ccccc2)c2cc(Br)c(OC)c(C(=O)OC)c2)cc(Br)c1OC | > 200 µM | 11.2 µM | 
CCOC(=O)CN(Cn1cncn1)Cn1cncn1 | > 200 µM | 28.8 µM | 
O=C(O)c1cccc(S(=O)(=O)NN2C(=O)CSC2c2ccccc2Cl)c1 (stereo not drawn) | > 195 µM | 166 µM | 
CCOC(=O)Cc1nc2c(N)ncnc2n1C1OC(COC(C)=O)C(OC(C)=O)C1OC(C)=O (stereo not drawn) | > 200 µM | > 200 µM | 
CCCCNCCCC.[C-]#[O+].[C-]#[O+].[C-]#[O+].[C-]#[O+].[C-]#[O+].[Cr] | > 200 µM | 56.2 µM | 
CCOC(=O)/C=C1\CCC(C)n2c1nccc2=O (stereo not drawn) | > 200 µM | 110 µM | 
C=CC(=O)N1C/C(=C\c2ccc(Cl)cc2)C(=O)/C(=C/c2ccc(Cl)cc2)C1 | > 0.2 µM | 0.0708 µM | 
COc1cc(C)c2c(=O)c3c(oc2c1)C(=O)c1c(OC)c(OC)cc(OC)c1C3=O |  |  | inactive
O=C(Nc1cccc2nsnc12)c1ccc(C(=O)Nc2cccc3nsnc23)cc1 | > 22.9 µM | > 22.9 µM | 
S=C(NCCSSCCNC(=S)Nc1ccccc1)Nc1ccccc1 | > 200 µM | 35.5 µM | 
CCCCc1ccc(Nc2nc(Cl)c3ncn(C4CC(Oc5ccc(C)cc5)C(COc5ccc(C)cc5)O4)c3n2)cc1 (stereo not drawn) | > 200 µM | > 200 µM | 
O=C1N=C2SC=C(NC(=S)Nc3ccccc3)N2NC12c1ccccc1-c1ccccc12 | > 200 µM | 74.1 µM | 
CNc1nc(=O)c(C#N)c(-c2ccc(C)cc2)s1 | 166 µM | > 200 µM | 
Cc1cccc(C(C)(C)C)c1NC(=O)C(=O)C(c1cnc2ccccc2n1)[N+](=O)[O-] (stereo not drawn) | > 324 µM | 120 µM | 
CCOC(=O)C(Cc1ccccc1[N+](=O)[O-])C(=O)OCC | > 200 µM | 102 µM | 
C=C1C(=O)OC(CCCCCCCCCCCCC)C1C(=O)O (stereo not drawn) | > 3.24 µM | > 3.24 µM | 

Compound | EC50 | IC50 | outcome
CC(=O)c1cc([N+](=O)[O-])ccc1OCC(=O)O |  |  | inactive
CS(=O)(=O)CSCSSCS(C)(=O)=O | > 427 µM | 20 µM | 
CCNC(=S)N/N=C/c1cc([N+](=O)[O-])ccc1O | > 200 µM | 5.01 µM | 
O=C(NNCc1ccccc1O)c1ccccc1O | > 200 µM | 2.88 µM | 
CCOC(=O)C1SC(=Nc2ccccc2)N=C1C (stereo not drawn) |  |  | inactive
CC1=NN2C(=O)CSC2=NC(C)(C)C1 | 263 µM | 1170 µM | 
CC1=NN(c2ccccc2)C(=O)/C1=C1/C(=O)N(c2ccccc2)N=C1C | > 200 µM | > 200 µM | 
Cc1cccc(N2C(=O)C=C(NC(CC(C)C)c3nc4ccccc4[nH]3)C2c2ccccc2)c1 (stereo not drawn) | > 200 µM | 17 µM | 
CCNc1ccc(-c2ccccc2)nc1N1CCN(C(=O)c2cc3cc(OC)ccc3[nH]2)CC1 | > 200 µM | 24 µM | 
COC1/C=C\C=C(/C)C(=O)Nc2cc3nc4ccc(Br)cc4oc-3c(c2=O)CC(C)CC(OC)C(O)C(C)/C=C(\C)C1OC(N)=O (stereo not drawn) | > 0.2 µM | 0.0115 µM | 
Cc1cccc(C)c1NC(=S)/N=C/C1=C(O)c2ccccc2C1=O | > 200 µM | 15.8 µM | 
COc1cc2c3c(c1OC)/C(=N/OS(=O)(=O)c1ccc(C)cc1)CC3N(S(=O)(=O)c1ccc(C)cc1)CC2 (stereo not drawn) |  |  | inactive
CC(C)(C)OC(=O)NC(CS(=O)(=O)O)C(=O)O (stereo not drawn) | > 200 µM | > 200 µM | 
c1ccc(Nc2cc(Nc3ccccc3)cc(Nc3ccccc3)c2)cc1 | > 200 µM | 26.3 µM | 
COc1nc2c(c(=O)n1C)N[C@H]1[C@H](OC(C)=O)[C@@H](OC(C)=O)CO[C@H]1N2 | > 200 µM | > 200 µM | 
C/C=C/C(=O)[O-].N.N.N.N.N.[Co+3].[O-][Cl+3]([O-])([O-])[O-] |  |  | inactive
NC12c3c4cccc3Oc3cccc(c31)Oc1cccc(c12)O4 | > 50.1 µM | 28.8 µM | 
COc1ccc2c(C)cc(N/N=C/c3sccc3C)nc2c1 | > 200 µM | 8.32 µM | 
CC1=NNC(=O)C1C(C/C(=N/O)c1c[nH]c2ccccc12)C(=O)O (stereo not drawn) | > 100 µM | > 100 µM | 
CC(C)C1COC(C(C)(C)C2=N[C@@H](C(C)C)CO2)=N1 (stereo partly drawn) | > 251 µM | 135 µM | 
COC(CCC[N+](C)(C)C)CC[N+](C)(C)C (stereo not drawn) | > 100 µM | > 100 µM | 
Cc1ccc(NC(=O)C(=O)C2C(=O)N(c3ccccc3)N=C2N)cc1C (stereo not drawn) |  |  | inactive

Compound | EC50 | IC50 | outcome
CC(C)=CCCC1(C)C2COC(=O)C21 (stereo not drawn) | > 200 µM | 70.8 µM and 15.1 µM | 
C=CC1C(C[C@@H]2c3cc(O)c(O)cc3CCN2C(C)=O)C(C(=O)OC)=CO[C@H]1OC1OC(CO)C(O)C(O)C1O (stereo partly drawn) |  |  | inactive
CC#CCCCC1(C)CCCNC1=S (stereo not drawn) | > 200 µM | > 200 µM | 
COc1ccc(NC(=O)CC(=O)N2N=C(C)C(N=Nc3ccc(C(=O)O)cc3)C2=O)cc1 (stereo not drawn) | > 200 µM | 95.5 µM | 
FC(F)(F)c1nc(Cl)c2ncsc2n1 | > 200 µM | 2.4 µM | 
C=CN1C(=O)OC[C@@H]1c1ccccc1 | > 513 µM | > 513 µM | 
CC(C)Cn1c(N)c(N=O)c(=O)n(C)c1=O | > 200 µM | > 200 µM | 
CC1(C)Nc2cc3c(cc2-n2cccc21)oc1ccccc13 | > 200 µM | 9.12 µM | 
CCOC(=O)C(C)(c1c(C)[nH]c2ccccc12)c1c(C)[nH]c2ccccc12 |  |  | inactive
c1ccc2c(c1)ccc1c2nc2c3ccccc3[nH]n12 | 0.245 µM | 10.7 µM | 
O=C(Oc1cc(=O)c(OC(=O)c2ccccc2)co1)c1ccccc1 | > 200 µM | 110 µM | 
O=C(CCCC(=O)NNC(=O)Nc1ccc(N=Nc2ccccc2)cc1)NNC(=O)Nc1ccc(N=Nc2ccccc2)cc1 | > 200 µM | > 200 µM | 
CN(C)[C@@H]1C(=O)C(C(=O)NCNCCCC(=O)O)=C(O)[C@@]2(O)C(=O)C3=C(O)c4c(O)cccc4[C@@](C)(O)[C@H]3C[C@@H]12 | > 1.78 µM | > 1.78 µM | 
Cc1n[nH]c(=S)n1NC=O | > 200 µM | > 200 µM | 
COC(=O)C(c1ccc(OC)cc1)N1C(=O)[C@@H](NC(=O)c2ccccc2)[C@H]1[C@@H](C)O (stereo partly drawn) | > 200 µM | > 200 µM | 
OC1CC(c2ccccc2)Oc2ccccc21 (stereo not drawn) |  |  | inactive
O=C(O)C(=O)CC(=O)c1ccc(Br)cc1 | > 200 µM |  | 
Cc1ccc(SCC(O)=C2C(=O)CCCC2=O)cc1 | > 245 µM | 158 µM | 
O=[N+]([O-])c1ccccc1S(=O)(=O)N1CCCc2cc(Cl)ccc21 | > 200 µM | 16.6 µM | 
O=C1OC(CCCl)(c2ccccc2)CC1CN1CCOCC1 (stereo not drawn) | > 692 µM | 10.5 µM | 
COC(=O)C(CC(=O)Nc1ccc(C)cc1)C(=O)C(=O)Nc1c(C(C)C)cccc1C(C)C (stereo not drawn) | > 79.4 µM | > 79.4 µM | 
CC(=O)O[C@H]1CC[C@]2(C)C3CC[C@]4(C)C([C@H](C)CCCC(C)C)CCC4[C@]3(/C=N/O)n3c(=O)n(-c4ccccc4)c(=O)n3[C@]2(/C=N\O)C1 (stereo partly drawn) | > 200 µM | 11 µM | 

Compound | EC50 | IC50 | outcome
Cc1ccccc1NC(=S)N=Nc1c(O)[nH]c2ccccc12 | > 200 µM | > 200 µM | 
COc1ccc(OC)c(CCCC(=O)O)c1 | 0.0631 µM | > 200 µM | 
c1ccc(C2=NOC3C4CCC(C4)C23)cc1 (stereo not drawn) |  |  | inactive
COc1ccc(S(=O)(=O)N/N=C(\C)CN2C(=O)c3ccccc3C2=O)cc1 | > 129 µM | > 129 µM | 
CC(=N)C(C#N)C(=S)S (stereo not drawn) | > 537 µM | 27.5 µM | 
COc1cc2c(cc1O)C1Cc3cc(O)c(OC)cc3C(C2)N1C (stereo not drawn) | > 759 µM | 49 µM | 
CCOC(=O)/C(C#N)=C/c1ccc2c(c1)CC1(C2)Cc2cc(CC)c(C(C)O)cc2C1 (stereo not drawn) | > 200 µM | 3.63 µM | 
Cc1nc2ccccc2c(N)c1-c1cc(C)c2c(C)nc3ccccc3c2n1 | > 200 µM | 3.89 µM | 
Cn1c(=O)c2c(nc3[nH]c(=O)c(Br)cn32)n(C)c1=O | > 100 µM | 20.4 µM | 
COc1ccc(C(=O)Nc2sc(SC)nc2C(N)=O)cc1 | > 200 µM | > 200 µM | 
CC1=C(C(=O)Nc2cc(=O)n(C)c(=O)n2C)C(c2ccc([N+](=O)[O-])cc2)C(C(=O)Nc2cc(=O)n(C)c(=O)n2C)=C(C)N1 | > 8.71 µM | > 8.71 µM | 
O=c1sc2ccccc2c2c1C=CCO2 | > 46.8 µM | > 46.8 µM | 
O=S(=O)(N/N=C/c1ccc(Cl)cc1Cl)c1ccccc1 |  |  | inactive
CN(C)CCCCN1c2ccccc2Sc2ccc(N=[N+]=[N-])cc21 | > 200 µM | 3.24 µM | 
CC(=O)Nc1ccc(/C=C/C(=O)c2sc(-n3nc(-c4ccccc4)cc3-c3ccccc3)nc2C)cc1 | > 20 µM | 17 µM | 
Cn1c2c(c3ccccc31)CCN(CCCCN1CCCCC1)C2=O | > 372 µM | 58.9 µM | 
CC[N+](CC)=c1cc2oc3cc(N(C)C)ccc3nc-2cc1C | > 200 µM | 16.2 µM | 
CC(CC12C=CC3(OO1)C(C)(C)CCCC3(C)O2)OC(=O)c1ccccc1 (stereo not drawn) | > 200 µM | 7.08 µM and 11.2 µM | 
CN(N=O)C(N)=NC(=O)c1ccccc1 | > 200 µM | 141 µM | 
COC(=O)c1c(/C(=N/Nc2ccc([N+](=O)[O-])cc2)[N+](=O)[O-])ssc1=N | > 200 µM | 10 µM | 
CCOC1(O)C(=O)c2ccccc2OC1(OCC)c1ccccc1 (stereo not drawn) | > 200 µM | 26.9 µM | 
CCc1cccc(NC(=O)c2cc(/C=C/c3ccccc3)[nH]c(=S)n2)c1 | > 347 µM | > 347 µM | 
